From patent US8778966B2, “Quinolinone derivatives as PARP and tank inhibitors” (Janssen Pharmaceutica, NV, priority 2007, dated 2014) come the findings set out here.

One experiment has as its system PC-3 cells. Put plainly: Antiproliferative activity, Alamar Blue assay, PC-3 cells. Type of experiment: cell-based, human. Particulars: for IC50: Homo sapiens, PC-3, PC3 cells, read-out: PC3 antiproliferative activity pIC50 (converted); for PC3 antiproliferative activity pIC50: PC3 cells. The method in brief:
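Resazurin-based fluorescence (540 nm ex/590 nm em) measured after 4-day compound treatment plus 24 hrs dye incubation at 37° C. Cells plated at 4.5×10^3 cells/ml, adhered 24 hr first. pIC50 from probit-derived IC50 on % viable cells versus untreated, triplicate wells.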
(In general: Alamar Blue is a resazurin reagent that responds to reducing activity.)

The next experiment concerns HCT116 cells. Put plainly: Mitotic arrest assay on HCT116 cells (phospho-histone H3 Ser10). Particulars: lowest active dose; for minimal effective concentration: Homo sapiens, HCT-116, HCT116 cells, read-out: Mitotic arrest HCT116 LAD (converted); for Mitotic arrest HCT116 LAD: HCT116 cells, the values are: pLAD (−log M lowest active dose). It is filed as cell-based, human. In short, it runs like this:
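Read-out is imaging of phospho-histone H3 Ser10 (Alexa Fluor 488) with Hoechst nuclear counting, after 6 h compound exposure at 37 °C, DMSO ≤0.1%. LAD is the lowest dose at which the blank-corrected value over SD exceeds 5; triplicates, low-count wells excluded.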

Each structure is given as a SMILES string. Read-outs that look alike come from different tables or passages of the source.

For the compound `Cc1cc2ccc(C(C)(C#N)Cc3cc4ccccc4[nH]3)cc2[nH]c1=O` (stereo not drawn) [Compound 234], the IC50 in the experiment with PC-3 cells (Alamar Blue) was 10000 nM. Also, the minimal effective concentration in the experiment on HCT116 cells is 3 µM. Consider `CCc1cc2ccc(C(C)(C#N)Cc3cc(Cl)cc4c3OCOC4)cc2[nH]c1=O` (stereo not drawn) [Compound 90], for which, in the experiment with PC-3 cells, the “PC3 antiproliferative activity pIC50” value worked out at 5.8. Also, the minimal effective concentration in the experiment on HCT116 cells is 0.316 µM.

Regarding `CCc1cc2ccc(C(C)(C#N)Cc3cccc(COC)c3)cc2[nH]c1=O` (stereo not drawn) [Compound 8], the IC50 with PC-3 cells was 631 nM. In the experiment on HCT116 cells, the minimal effective concentration is 0.1 µM. On the same counts, the results for `CCc1cc2ccc(C(C)(C#N)Cc3cccc(CO)c3)cc2[nH]c1=O` (stereo not drawn) [Compound 9] are 631 nM and 0.316 µM.

As for `CCc1cc2ccc(C(C)(C#N)Cc3cccc(CNCCN4CCOCC4)c3)cc2[nH]c1=O` (stereo not drawn) [Compound 61], the IC50 in the experiment on PC-3 cells is greater than 10000 nM. For the same compound, the minimal effective concentration with HCT116 cells was 10 µM.

For the compound `CCc1cc2ccc(C(C)(C#N)Cc3cc4c(cc3Cl)OCO4)cc2[nH]c1=O` (stereo not drawn) [Compound 91], the IC50 in the experiment with PC-3 cells was 398 nM. Also, in the experiment with HCT116 cells, the minimal effective concentration is 0.1 µM. For `CCc1cc2ccc(C(C#N)(Cc3ccccc3)CC3CC3)cc2[nH]c1=O` (stereo not drawn) [Compound 28] the same measures were greater than 10000 nM and 3.16 µM. Take `CCc1cc2ccc(C(C)(C#N)Cc3cccc4nnn(C)c34)cc2[nH]c1=O` (stereo not drawn) [Compound 94]: in the experiment with PC-3 cells, the IC50 is greater than 10000 nM. Also, the minimal effective concentration in the experiment on HCT116 cells is 3.16 µM.

As to `CCc1cc2ccc(C(C)(C#N)Cc3cccc(CNCCOC)c3)cc2[nH]c1=O` (stereo not drawn) [Compound 60], the IC50 with PC-3 cells was 7940 nM. For the same compound, the minimal effective concentration in the experiment on HCT116 cells is 1 µM.

On to `CCc1cc2ccc(C(C)(C#N)CCOc3ccc4c(c3)OCO4)cc2[nH]c1=O` (stereo not drawn) [Compound 279], for which the IC50 in the experiment on PC-3 cells (Alamar Blue) is 1580 nM. The minimal effective concentration with HCT116 cells was 1 µM. In the case of `CCc1cc2ccc(C(C)(C#N)Cc3ccccc3OC(F)(F)F)cc2[nH]c1=O` (stereo not drawn) [Compound 102], the IC50 in the experiment on PC-3 cells was 1000 nM. Further, in the experiment on HCT116 cells, the minimal effective concentration is 0.316 µM. Take `CCc1cc2ccc([C@](C)(C#N)Cc3nc(OC)cc(OC)n3)cc2[nH]c1=O` (single isomer, unassigned) [Compound 52]: in the experiment on PC-3 cells (Alamar Blue), the IC50 is 7940 nM. Besides, the minimal effective concentration in the experiment on HCT116 cells is 3 µM.

Take `CCc1cc2ccc(C(C)(C#N)Cc3ccncc3)cc2[nH]c1=O` (stereo not drawn) [Compound 98]: the IC50 in the experiment on PC-3 cells was greater than 10000 nM. Further, the minimal effective concentration in the experiment on HCT116 cells was greater than 10 µM. Regarding `CCc1cc2ccc(C(C)(C#N)Cc3cccc(OCCCN4CCN(C)CC4)c3)cc2[nH]c1=O` (stereo not drawn) [Compound 69], the IC50 in the experiment with PC-3 cells was 7940 nM. Also, the minimal effective concentration in the experiment on HCT116 cells is 10 µM.

As for `CCc1cc2ccc(C(C)(C#N)Cc3ccc4nccnc4c3)cc2[nH]c1=O` (stereo not drawn) [Compound 87], in the experiment with PC-3 cells, the IC50 is 1000 nM. Besides, the minimal effective concentration in the experiment with HCT116 cells was 0.316 µM. For `Cc1cc2ccc(C(C)(C#N)Cc3ccc(Cl)s3)cc2[nH]c1=O` (stereo not drawn) [Compound 72], the IC50 in the experiment on PC-3 cells is 2000 nM. In addition, the minimal effective concentration with HCT116 cells was 0.1 µM. For `CCc1cc2ccc(C(C)(C#N)Cc3cc(OC)cc(OC)c3)cc2[nH]c1=O` (stereo not drawn) [Compound 332], in the experiment with PC-3 cells (Alamar Blue), the IC50 is 251 nM. In addition, in the experiment with HCT116 cells, the minimal effective concentration was 0.1 µM. For `CCc1cc2ccc(C(C)(C#N)CC3COc4ccccc4O3)cc2[nH]c1=O` (single isomer, unassigned) [Compound 47], the “PC3 antiproliferative activity pIC50” value in the experiment on PC-3 cells was less than 5. In the experiment on HCT116 cells, this compound showed a Mitotic arrest HCT116 LAD of 5.5. As to `CCc1cc2ccc(C(C)(C#N)Cc3ccccc3C#N)cc2[nH]c1=O` (stereo not drawn) [Compound 101], the IC50 in the experiment with PC-3 cells is 3160 nM. Moreover, the minimal effective concentration in the experiment with HCT116 cells is 0.316 µM. For `CCc1cc2ccc(C(C)(C#N)Cc3nn(C)c4ccccc34)cc2[nH]c1=O` (stereo not drawn) [Compound 95] the same measures were 631 nM and 0.1 µM. On the same counts, the results for `CCOP(=O)(OCC)c1cccc(CC(C)(C#N)c2ccc3cc(CC)c(=O)[nH]c3c2)c1` (stereo not drawn) [Compound 50] are 794 nM and 0.316 µM. On the same counts, the results for `Cc1cc2ccc(C(C)(C#N)Cc3ccc(C(F)(F)F)o3)cc2[nH]c1=O` (stereo not drawn) [Compound 73] are 2000 nM and 0.316 µM.

Turning to `Cc1cc2ccc(C(C)(C#N)Cc3ccccc3)cc2[nH]c1=O` (stereo not drawn) [Compound 76], in the experiment with PC-3 cells, the IC50 is 631 nM. Further, the minimal effective concentration in the experiment on HCT116 cells was 0.316 µM. As for `CCc1cc2ccc(C(C)(C#N)Cc3cccc(N4CCCCC4)c3)cc2[nH]c1=O` (stereo not drawn) [Compound 65], the minimal effective concentration in the experiment on HCT116 cells was 1 µM. For the compound `CCc1cc2ccc(C(C)(C#N)Cc3ccc(OC)c(C#N)c3)cc2[nH]c1=O` (stereo not drawn) [Compound 77], the IC50 in the experiment on PC-3 cells was 1580 nM. Besides, in the experiment with HCT116 cells, the minimal effective concentration is 0.316 µM.

For the compound `CCc1cc2ccc(C(C)(C#N)Cc3cccc(CN(C)C)c3)cc2[nH]c1=O` (stereo not drawn) [Compound 7], the IC50 in the experiment on PC-3 cells was 7940 nM. The minimal effective concentration in the experiment with HCT116 cells is 3.16 µM. In the case of `CCc1cc2ccc(C(C)(C#N)Cc3ccccc3C(F)(F)F)cc2[nH]c1=O` (stereo not drawn) [Compound 103], the IC50 in the experiment on PC-3 cells was 631 nM. In addition, the minimal effective concentration in the experiment with HCT116 cells is 0.316 µM.

In the case of `CCc1cc2ccc(C(C)(C#N)Cc3cccc(N4CCN(C)CC4)c3)cc2[nH]c1=O` (stereo not drawn) [Compound 66], the IC50 with PC-3 cells was 5010 nM. The minimal effective concentration in the experiment with HCT116 cells was 3.16 µM. For `CCc1cc2ccc(C(C)(C#N)Cc3nncn3C)cc2[nH]c1=O` (stereo not drawn) [Compound 93] the same measures were 10000 nM and 1 µM. Regarding `CCc1cc2ccc(C(C)(C#N)CCOc3ccccc3C#N)cc2[nH]c1=O` (stereo not drawn) [Compound 276], the IC50 in the experiment on PC-3 cells (Alamar Blue) was 2510 nM. In the experiment with HCT116 cells, the minimal effective concentration is 1 µM.

In the case of `CCc1cc2ccc(C(C)(C#N)Cc3cc(Cl)ccc3Cl)cc2[nH]c1=O` (stereo not drawn) [Compound 99], in the experiment with PC-3 cells, the IC50 was 398 nM. In addition, the minimal effective concentration in the experiment on HCT116 cells is 0.1 µM. For `CCc1cc2ccc(C(C)(C#N)Cc3cccc(OCC4CC4)c3)cc2[nH]c1=O` (stereo not drawn) [Compound 67] the same measures were 1260 nM and 0.316 µM. On the same counts, the results for `CCc1cc2ccc(C(C)(C#N)Cc3cccc(N4CCNCC4)c3)cc2[nH]c1=O` (stereo not drawn) [Compound 64] are greater than 10000 nM and 3.16 µM. For `CCc1cc2ccc(C(C)(C#N)Cc3c(C)c(C)cc(C)c3C)cc2[nH]c1=O` (stereo not drawn) [Compound 88] the same measures were 10000 nM and 1 µM. Turning to `Cc1cc2ccc(C(C)(C#N)Cc3cc4ccccc4s3)cc2[nH]c1=O` (stereo not drawn) [Compound 71], in the experiment on PC-3 cells, the IC50 was 2000 nM. Also, in the experiment with HCT116 cells, the minimal effective concentration is 0.316 µM. On to `Cc1cc2ccc(C(C)(C#N)Cc3cccc4cccnc34)cc2[nH]c1=O` (stereo not drawn) [Compound 74], for which the IC50 in the experiment with PC-3 cells is 1000 nM. Besides, the minimal effective concentration with HCT116 cells is 0.316 µM. Turning to `CCc1cc2ccc(C(C)(C#N)Cc3ccc(F)c(C#N)c3)cc2[nH]c1=O` (stereo not drawn) [Compound 267], the IC50 with PC-3 cells (Alamar Blue) is 501 nM. Also, the minimal effective concentration in the experiment with HCT116 cells was 0.1 µM. On the same counts, the results for `CCc1cc2ccc(C(C)(C#N)CCOc3ccccc3F)cc2[nH]c1=O` (stereo not drawn) [Compound 278] are 2000 nM and 1 µM. Consider `CCc1cc2ccc(C(C)(C#N)Cc3cccc(CNC)c3)cc2[nH]c1=O` (stereo not drawn) [Compound 59], for which the IC50 with PC-3 cells was 10000 nM. The minimal effective concentration with HCT116 cells is 10 µM. For `CCc1cc2ccc(C(C)(C#N)Cc3cccc(C(=O)NCCOC)c3)cc2[nH]c1=O` (stereo not drawn) [Compound 62] the same measures were 7940 nM and 1 µM. For `CCc1cc2ccc(C(C)(C#N)Cc3ccc(C)c(F)c3F)cc2[nH]c1=O` (stereo not drawn) [Compound 83] the same measures were 2000 nM and 0.316 µM. On the same counts, the results for `CCc1cc2ccc(C(C)(C#N)Cc3cc(Cl)ccc3OC)cc2[nH]c1=O` (stereo not drawn) [Compound 80] are 398 nM and 0.1 µM.

Regarding `CCc1cc2ccc(C(C)(C#N)Cc3cc(Cl)cc4c3OCOC4)cc2[nH]c1=O` (stereo not drawn) [Compound 92], the “PC3 antiproliferative activity pIC50” value in the experiment on PC-3 cells amounted to 5.4. Moreover, in the experiment with HCT116 cells, the Mitotic arrest HCT116 LAD was found to be 6.5. As for `CCc1cc2ccc(C(C)(C#N)Cc3c(F)ccc(C)c3F)cc2[nH]c1=O` (stereo not drawn) [Compound 41], in the experiment on PC-3 cells, the IC50 was 631 nM. The minimal effective concentration in the experiment with HCT116 cells was 0.316 µM. For `CCc1cc2ccc(C(C)(C#N)Cc3nc4ccccc4o3)cc2[nH]c1=O` (stereo not drawn) [Compound 85] the same measures were 1000 nM and 0.316 µM. On the same counts, the results for `CCc1cc2ccc(C(C)(C#N)Cc3cccc(Br)c3C)cc2[nH]c1=O` (stereo not drawn) [Compound 81] are 501 nM and 0.1 µM. For the compound `CCc1cc2ccc(C(C)(C#N)Cc3cccc(C(=O)N(C)C)c3)cc2[nH]c1=O` (stereo not drawn) [Compound 63], the IC50 with PC-3 cells is 3160 nM. Further, the minimal effective concentration with HCT116 cells was 0.316 µM. As for `Cc1cc2ccc(C(C)(C#N)Cc3nc4ccccc4s3)cc2[nH]c1=O` (stereo not drawn) [Compound 75], the IC50 in the experiment on PC-3 cells was 200 nM. Moreover, in the experiment on HCT116 cells, the minimal effective concentration was 0.1 µM.

With `CC(C#N)(Cc1ccccc1)c1ccc2cc(CO)c(=O)[nH]c2c1` (stereo not drawn) [Compound 40], in the experiment with PC-3 cells, the IC50 is greater than 10000 nM. The minimal effective concentration in the experiment on HCT116 cells is 3.16 µM. On the same counts, the results for `CCc1cc2ccc(C(C)(C#N)Cc3c(C)cccc3C)cc2[nH]c1=O` (stereo not drawn) [Compound 84] are 3980 nM and 0.316 µM. For `CCc1cc2ccc(C(C)(C#N)Cc3cn4ccccc4n3)cc2[nH]c1=O` (stereo not drawn) [Compound 96] the same measures were greater than 10000 nM and 1 µM. For `CCc1cc2ccc(C(C)(C#N)Cc3ccccc3)cc2[nH]c1=O` (stereo not drawn) [Compound 44], the minimal effective concentration with HCT116 cells is 0.316 µM.
